Reference: patent US9073927B2, “Inhibitors of PI3 kinase” (FUNDACION CENTRO NACIONAL DE INVESTIGACIONES ONCOLOGICAS …, priority 2010, dated 2015)
Read-outs that look alike come from different tables or passages of the source. One block for each compound: values may come before it.

Experiments:
PI3K (p110α/p85α) = biological target: T1, PI3K (p110α/p85α) (Homo sapiens, UniProt P42336); experiment: PI3K activity assay (ADP Hunter Plus); format: biochemical
T1 construct: purchased Carna Biosciences 07CBS-0402A
Description: The kinase activity was measured by using the commercial ADP Hunter™ Plus assay available from DiscoveRx (#33-016), which is a homogeneous assay to measure the accumulation of ADP, a universal product of kinase activity. The enzyme, PI3K (p110α/p85α was purchased from Carna Biosciences (#07CBS-0402A). The assay was done following the manufacturer recommendations with slight modifications: Mainly the kinase buffer was replace by 50 mM HEPES, pH 7.5, 3 mM MgCl2, 100 mM NaCl, 1 mM EGTA, 0.04% CHAPS, 2 mM TCEP and 0.01 mg/ml BGG. The PI3K was assayed in a titration experiment to determine the optimal protein concentration for the inhibition assay. To calculate the IC50 of the ETP-compounds, serial 1:5 dilutions of the compounds were added to the enzyme at a fixed concentration (2.5 μg/ml. The enzyme was preincubated with the inhibitor and 30 μM PIP2 substrate (P9763, Sigma) for 5 min and then ATP was added to a final 50 μM concentration. Reaction was carried out for 1 hour at 25° C. Reagent A and B were sequentially added to the wells and plates were incubated for 30 min at 37° C. Fluorescence counts were read in a Victor instrument (Perkin Elmer) with the recommended settings (544 and 580 nm as excitation and emission wavelengths, respectively). Values were normalized against the control activity included for each enzyme (i.e., 100% PI3 kinase activity, without compound). These values were plot against the inhibitor concentration and were fit to a sigmoid dose-response curve by using the Graphad software.

phospho-Ser-473-Akt = experiment: PI3K signalling: AKT phosphorylation inhibition, Western blot analysis; format: cell-based; conditions: read-out: p-AKT (IC50, WB)
Description: AKT Phosphorylation Inhibition Western Blot Analysis
Subconfluent cells were incubated under different conditions and washed twice with TBS prior to lysis. Lysis buffer was added containing 50 mM Tris HCl, 150 mM NaCl, 1% NP-40, 2 mM Na3VO4, 100 mM NaF, 20 mM Na4P2O7 and protease inhibitor cocktail (Roche Molecular Biochemicals). The proteins were resolved on 10% SDS-PAGE and transferred to nitrocellulose membrane (Schleicher & Schuell, Dassel, Germany). The membranes were incubated overnight at 4° C. with antibodies specific for Akt, phospho-Ser-473-Akt (Cell Signaling Technology) and α-tubulin (Sigma), they were washed and then incubated with IRDye800 conjugated anti-mouse and Alexa Fluor 680 goat anti-rabbit IgG secondary antibodies. The bands were visualized using an Odyssey infrared imaging system (Li-Cor Biosciences). Compounds of the invention have a range of in vitro cell potency activities from about 1 nM to about 10 μM.
Compounds of the examples/invention were tested in the PI3K signalling cellular assay described hereinbefore (Western Blot Analysis), which measures AKT phosphorylation inhibition. Cellular activity of representative compounds, is represented in the table below: […]

A549 cells = experiment: In vitro cell proliferation / combination assay (MTT), A549; format: cell-based; conditions: for Synergy / Combination Index (Cl): A549; for Combination Index (Cl): Chou and Talalay; for EC50: Homo sapiens, A549, Lung, Ras G12S
Description: (§1) Cells were seeded at 10000-50000 cells/well in 96 plates for 16 h. On day two, nine serial 1:3 compound dilutions were made in DMSO in a 96 well plate. The compounds were added to duplicate wells in 96-well cell plates a using a FX BECKMAN robot (Beckman Coulter) and incubated at 37° C. with CO2 atmosphere. After 3 days, relative numbers of viable cells were measured by MTT (Sigma) according to manufacturer's instruction and read on EndVision (Perkin Elmer). EC50 values were calculated using Activityl)ase from IDBS. Drugs in combination assays were dosed starting at 4×EC50 concentrations and continuing with serial dilutions 1:2. PI3K inhibitors and chemotherapeutic agents were added simultaneously.
An additional exemplary in vitro cell proliferation assay includes the following steps: • 1. An aliquot of 200 μl of cell culture containing optimal density (between 10^4-5×10^4 cells) (see Examples for cell lines and tumour type) in medium was deposited in each well of a 96-well flat bottom plates. • 2. Control wells were prepared containing medium without cells • 3. The compound was added to the experimental wells and incubated for 3 days. • 4. One quarter volume of MTT reagent with respect to the volume of cell culture medium present in each well was added and incubated 24 h at 37° C. with 5% CO2. • 5. One quarter volume of solubilisation buffer with respect to the volume of cell culture medium present in each well was added and incubated 24 h at 37° C. with 5% CO2. • 6. Formazan salt formed was recorded and reported in graphs as relative growth vs. cells treated only with dmso.
(§2) The individual measured EC50 values against the particular cell of the exemplary compounds and of the chemotherapeutic agent are compared to the combination EC50 value. The combination Index (CI) score is calculated by the Chou and Talalay method (CalcuSyn software, Biosoft). A CI less 0.8 indicates synergy. A CI between 0.8 and 1.2 indicates additivity. A CI greater than 1.2 indicates antagonism.
as §2, with “agents” for “agent”

SKVO3 cells = experiment: In vitro cell proliferation / combination assay (MTT), SKVO3; format: cell-based; conditions: SKVO3, Ovarian, PIK3CA, p53
Description: as §1, with “PI3K inhibitors and chemotherapeutic agents were added simultaneously.” left out
An additional exemplary in vitro cell proliferation assay includes the following steps: • 1. […] Formazan salt formed was recorded and reported in graphs as relative growth vs. cells treated only with dmso.
The individual measured EC50 values against the particular cell of the exemplary compounds and of the chemotherapeutic agent are compared to the combination EC50 value. The combination Index (CI) score is calculated by the Chou and Talalay method (CalcuSyn software, Biosoft). […]
The individual measured EC50 values against the particular cell of the exemplary compounds and of the chemotherapeutic agents are compared to the combination EC50 value. The combination Index (CI) score is calculated by the Chou and Talalay method (CalcuSyn software, Biosoft). […]

[1] = combination of 2-4 with Lapatinib
[2] = combination of 2-4 with PD-0325901
[3] = compound alone, read-out: Compound No. 2-4 (comp. (A)) EC50
[4] = therapeutic (comp. (B)) alone, read-out: Chemot. EC50

T1 sequence (P42336 whole entry): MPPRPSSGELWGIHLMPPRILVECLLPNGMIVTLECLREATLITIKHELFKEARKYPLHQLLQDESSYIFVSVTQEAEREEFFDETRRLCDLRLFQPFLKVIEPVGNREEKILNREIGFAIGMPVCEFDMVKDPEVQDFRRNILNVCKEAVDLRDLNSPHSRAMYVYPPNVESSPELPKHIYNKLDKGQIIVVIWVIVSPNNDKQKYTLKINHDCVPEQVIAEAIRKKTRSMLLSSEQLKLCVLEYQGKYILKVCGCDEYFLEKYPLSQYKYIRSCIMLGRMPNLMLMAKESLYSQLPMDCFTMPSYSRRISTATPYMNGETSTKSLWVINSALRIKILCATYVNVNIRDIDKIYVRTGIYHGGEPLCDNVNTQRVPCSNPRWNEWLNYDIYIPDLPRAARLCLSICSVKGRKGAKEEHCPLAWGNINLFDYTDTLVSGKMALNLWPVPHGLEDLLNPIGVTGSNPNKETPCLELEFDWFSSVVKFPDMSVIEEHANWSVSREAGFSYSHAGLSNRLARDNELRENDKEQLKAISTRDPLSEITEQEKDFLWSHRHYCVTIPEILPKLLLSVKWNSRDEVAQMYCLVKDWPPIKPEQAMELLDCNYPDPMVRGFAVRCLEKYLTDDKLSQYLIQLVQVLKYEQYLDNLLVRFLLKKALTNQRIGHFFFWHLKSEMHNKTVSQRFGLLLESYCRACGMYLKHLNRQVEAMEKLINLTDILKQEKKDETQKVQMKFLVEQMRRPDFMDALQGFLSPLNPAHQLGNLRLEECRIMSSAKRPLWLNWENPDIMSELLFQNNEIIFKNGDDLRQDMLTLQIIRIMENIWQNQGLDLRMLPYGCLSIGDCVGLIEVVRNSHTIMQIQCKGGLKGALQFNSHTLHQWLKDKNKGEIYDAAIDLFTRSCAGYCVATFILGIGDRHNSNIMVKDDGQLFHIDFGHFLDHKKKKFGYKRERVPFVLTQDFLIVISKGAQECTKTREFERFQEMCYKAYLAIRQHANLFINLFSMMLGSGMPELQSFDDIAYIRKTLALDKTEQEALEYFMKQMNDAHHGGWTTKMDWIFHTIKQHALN
T1 sequence (P27986 whole entry partner): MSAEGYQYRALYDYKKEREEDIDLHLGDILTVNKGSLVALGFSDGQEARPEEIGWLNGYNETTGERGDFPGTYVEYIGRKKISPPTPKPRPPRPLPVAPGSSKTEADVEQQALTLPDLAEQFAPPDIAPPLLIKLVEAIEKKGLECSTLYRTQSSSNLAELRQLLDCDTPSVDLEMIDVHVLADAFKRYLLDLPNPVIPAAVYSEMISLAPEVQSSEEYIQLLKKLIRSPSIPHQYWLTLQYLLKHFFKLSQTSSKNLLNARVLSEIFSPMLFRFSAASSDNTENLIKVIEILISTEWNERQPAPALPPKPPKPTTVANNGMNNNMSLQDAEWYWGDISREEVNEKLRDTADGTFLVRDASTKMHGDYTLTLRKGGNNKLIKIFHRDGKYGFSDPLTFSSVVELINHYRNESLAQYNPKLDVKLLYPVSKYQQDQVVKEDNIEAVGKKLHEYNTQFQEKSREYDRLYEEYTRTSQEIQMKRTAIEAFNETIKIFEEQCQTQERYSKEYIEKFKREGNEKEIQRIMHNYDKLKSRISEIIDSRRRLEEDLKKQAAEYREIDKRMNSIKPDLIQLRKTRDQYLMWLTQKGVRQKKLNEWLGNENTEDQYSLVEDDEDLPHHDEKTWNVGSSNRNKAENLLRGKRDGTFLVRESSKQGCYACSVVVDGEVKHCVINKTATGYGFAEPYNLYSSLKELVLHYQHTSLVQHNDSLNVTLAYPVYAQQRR

SMILES: Cc1nnc2c(N3CCOCC3)nc(-c3cnc(N)nc3)cn12 [Compound 3-5]
IC50 (PI3K (p110α/p85α); Table 4, read-out: PI3Kα): 165 nM

SMILES: COc1cccc(-c2cn3cncc3c(N3CCOCC3)n2)c1 [Compound 3-12, 6-(3-methoxy-phenyl)-8-morpholin-4-yl-imidazo[1,5-a]pyrazine]
IC50 (PI3K (p110α/p85α); Table 4, read-out: PI3Kα): 2000 nM

SMILES: CC(=O)O[C@@]12CO[C@@H]1C[C@H](O)[C@@]1(C)C(=O)[C@H](O)C3=C(C)[C@@H](OC(=O)[C@H](O)[C@@H](NC(=O)OC(C)(C)C)c4ccccc4)C[C@](O)([C@@H](OC(=O)c4ccccc4)[C@H]21)C3(C)C [Taxotere, (2R,3S)—N-carboxy-3-phenylisoserine, N-tert-butyl ester, 13-ester with 5,20-epoxy-1,2,4,7,10,13-hexahydroxytax-11-en-9-one 4-acetate 2-benzoate, trihydrate, reference compound]
EC50 (SKVO3 cells; [4]): 2000 nM

SMILES: Oc1cccc(-c2cn3cncc3c(N3CCOCC3)n2)c1 [Compound 3-11]
IC50 (PI3K (p110α/p85α); Table 4, read-out: PI3Kα): 317 nM

SMILES: COCCN(C)Cc1cc2c(N3CCOCC3)nc(-c3cnc(N)nc3)cn2n1 [Compound 3-14, 5-(2-{[(2-methoxy-ethyl)-methyl-amino]-methyl}-4-morpholin-4-yl-pyrazolo[1,5-a]pyrazin-6-yl)-pyrimidin-2-ylamine]
IC50 (PI3K (p110α/p85α); read-out: IC50 PI3Kα): 106 nM

SMILES: CS(=O)(=O)N1CCN(Cc2nc3c(N4CCOCC4)nc(-c4cccc5[nH]ncc45)cn3n2)CC1 [Compound 2-2]
IC50 (PI3K (p110α/p85α); Table 3, read-out: PI3Kα): 128 nM

SMILES: CS(=O)(=O)N1CCC(NCc2cc3c(N4CCOCC4)nc(-c4cnc(N)nc4)cn3n2)CC1 [Compound 3-13, 5-{2-[(1-methanesulfonyl-piperidin-4-ylamino)-methyl]-4-morpholin-4-yl-pyrazolo[1,5-a]pyrazin-6-yl}-pyrimidin-2-ylamine]
IC50 (PI3K (p110α/p85α); read-out: IC50 PI3Kα): 58 nM

SMILES: O=C(NOC[C@H](O)CO)c1ccc(F)c(F)c1Nc1ccc(I)cc1F [PD-0325901, (R)—N-(2,3-dihydroxypropoxy)-3,4-difluoro-2-(2-fluoro-4-iodophenylamino)benz-amide, reference compound]
EC50 (A549 cells; [4]): 1000 nM

SMILES: Nc1ncc(-c2cn3nc(CN4CCOCC4)cc3c(N3CCOCC3)n2)cn1 [Compound 3-17, 5-(4-morpholin-4-yl-2-morpholin-4-ylmethyl-pyrazolo[1,5-a]pyrazin-6-yl)-pyrimidin-2-ylamine]
IC50 (PI3K (p110α/p85α); read-out: IC50 PI3Kα): 80 nM

SMILES: CS(=O)(=O)CCNCc1ccc(-c2ccc3ncnc(Nc4ccc(OCc5cccc(F)c5)c(Cl)c4)c3c2)o1 [Lapatinib, N-(3-chloro-4-(3-fluorobenzyloxy)phenyl)-6-(5-((2-(methylsulfonyl)ethylamino)-methyl)furan-2-yl)quinazolin-4-amine, reference compound]
EC50 (A549 cells; [4]): 1000 nM

SMILES: Cc1nnc2c(N3CCOCC3)nc(-c3cccc(O)c3)cn12 [Compound 3-6]
IC50 (PI3K (p110α/p85α); Table 4, read-out: PI3Kα): 952 nM

SMILES: OCc1cc2c(N3CCOCC3)nc(-c3cccc(O)c3)cn2n1 [Compound 3-2]
IC50 (PI3K (p110α/p85α); Table 4, read-out: PI3Kα): 174 nM

Second part, led by results:

IC50 (PI3K (p110α/p85α); Table 3, read-out: PI3Kα): 1.4 nM | IC50 (phospho-Ser-473-Akt): 64 nM | EC50 (A549 cells; [3]): 1000 nM | EC50 (SKVO3 cells; [3]): 1000 nM
SMILES: CS(=O)(=O)N1CCN(Cc2nc3c(N4CCOCC4)nc(-c4cnc(N)nc4)c(Cl)n3n2)CC1 [Compound 2-4]
Synergy (A549 cells; [1]): − (a combination index greater than 1.2) | Combination Index (Cl) (A549 cells; [1]): 2.44 | Synergy (A549 cells; [2]): +++ (a combination index greater than 0.1 but lower than 0.3) | Combination Index (Cl) (A549 cells; [2]): 0.27

IC50 (PI3K (p110α/p85α); read-out: IC50 PI3Kα): 6 nM
SMILES: CC(C)S(=O)(=O)N1CCN(Cc2cc3c(N4CCOCC4)nc(-c4cnc(N)nc4)cn3n2)CC1 [Compound 3-18, 5-{4-morpholin-4-yl-2-[4-(propane-2-sulfonyl)-piperazin-1-ylmethyl]-pyrazolo[1,5-a]pyrazin-6-yl}-pyrimidin-2-ylamine]

IC50 (PI3K (p110α/p85α); Table 4, read-out: PI3Kα): 3 nM | IC50 (phospho-Ser-473-Akt): 5 nM
SMILES: CS(=O)(=O)N1CCN(Cc2cn3nc(-c4cnc(N)nc4)nc(N4CCOCC4)c3n2)CC1 [Compound 3-9]

IC50 (PI3K (p110α/p85α); Table 3, read-out: PI3Kα): 3 nM | IC50 (phospho-Ser-473-Akt): 12 nM
SMILES: CS(=O)(=O)N1CCN(Cc2nc3c(N4CCOCC4)nc(-c4cnc(N)nc4)cn3n2)CC1 [Compound 2-3]

IC50 (PI3K (p110α/p85α); read-out: IC50 PI3Kα): 13 nM
SMILES: CS(=O)(=O)N1CCCN(Cc2cc3c(N4CCOCC4)nc(-c4cnc(N)nc4)cn3n2)CC1 [Compound 3-16, 5-[2-(4-methanesulfonyl-[1,4]diazepan-1-ylmethyl)-4-morpholin-4-yl-pyrazolo[1,5-a]pyrazin-6-yl]-pyrimidin-2-ylamine]

IC50 (PI3K (p110α/p85α); Table 4, read-out: PI3Kα): 2 nM | IC50 (phospho-Ser-473-Akt): 14 nM
SMILES: CS(=O)(=O)N1CCN(Cc2cc3c(N4CCOCC4)nc(-c4cnc(N)nc4)cn3n2)CC1 [Compound 3-10, 5-[2-(4-methanesulfonyl-piperazin-1-ylmethyl)-4-morpholin-4-yl-pyrazolo[1,5-a]pyrazin-6-yl]-pyrimidin-2-ylamine]
